Kd, inhibition and IC50 data for six molecules are collected here from patent US11174264B2, “TYK2 inhibitors and uses thereof” (Nimbus Lakshmi, Inc., priority 2019, dated 2021).

In general, Kd refers to a measure of binding affinity in units of concentration. One may read the IC50 as the concentration at which inhibition is half-maximal.

The target of assay [1] is human TYK2 (JH2domain-pseudokinase) (Homo sapiens (Human), UniProt P29597). As to the kind of experiment: TYK2 JH2 Domain Binding Assay (KINOMEscan). The following applies: read-out: hTYK2_JH2_Binding (Kd). The method, then: Binding constants for compounds of the present invention against the JH2 domain were determined by the following protocol for a KINOMEscan® assay (DiscoveRx). A fusion protein of a partial length construct of human TYK2 (JH2domain-pseudokinase) (amino acids G556 to D888 based on reference sequence NP_003322.3) and the DNA binding domain of NFkB was expressed in transiently transfected HEK293 cells. From these HEK 293 cells, extracts were prepared in M-PER extraction buffer (Pierce) in the presence of Protease Inhibitor Cocktail Complete (Roche) and Phosphatase Inhibitor Cocktail Set II (Merck) per manufacturers' instructions. The TYK2 (JH2domain-pseudokinase) fusion protein was labeled with a chimeric double-stranded DNA tag containing the NFkB binding site (5′-[…]-3′) fused to an amplicon for qPCR readout, which was added directly to the expression extract (the final concentration of DNA-tag in the binding reaction is 0.1 nM).
Chain of human TYK2 (JH2domain-pseudokinase) (P29597 556-888): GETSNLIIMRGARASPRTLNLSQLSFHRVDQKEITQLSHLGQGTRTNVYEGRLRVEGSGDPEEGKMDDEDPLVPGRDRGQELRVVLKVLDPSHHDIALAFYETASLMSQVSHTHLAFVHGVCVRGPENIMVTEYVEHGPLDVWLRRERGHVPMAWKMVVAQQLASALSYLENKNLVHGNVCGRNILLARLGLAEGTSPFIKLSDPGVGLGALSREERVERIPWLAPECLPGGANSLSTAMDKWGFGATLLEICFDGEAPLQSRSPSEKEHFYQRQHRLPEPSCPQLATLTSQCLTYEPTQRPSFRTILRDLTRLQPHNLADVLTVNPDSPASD
The liganded beads were blocked with excess biotin and washed with blocking buffer (SeaBlock (Pierce), 1% BSA, 0.05% Tween 20, 1 mM DTT) to remove unbound ligand and to reduce nonspecific binding.
Extracts were used directly in binding assays without any enzyme purification steps at a ≥10,000-fold overall stock dilution (final DNA-tagged enzyme concentration <0.1 nM). Extracts were loaded with DNA-tag and diluted into the binding reaction in a two step process. First extracts were diluted 1:100 in 1× binding buffer (PBS/0.05% Tween 20/10 mM DTT/0.1% BSA/2 μg/ml sonicated salmon sperm DNA) containing 10 nM DNA-tag. This dilution was allowed to equilibrate at room temperature for 15 minutes and then subsequently diluted 1:100 in 1× binding buffer. […] Kds were determined using an 11-point 3-fold compound dilution series with three DMSO control points. […] The compounds were then diluted directly into the assays such that the final concentration of DMSO was 0.9%. All reactions performed in polypropylene 384-well plates. Each was a final volume of 0.02 mL. Assays were incubated with shaking for 1 hour at room temperature. Then the beads were pelleted and washed with wash buffer (1×PBS, 0.05% Tween 20) to remove displaced kinase and test compound. […] The qPCR protocol consisted of a 10 minute hot start at 95° C., followed by 35 cycles of 95° C. for 15 seconds, 60° C. for 1 minute.
The compounds were then diluted directly into the assays such that the final concentration of DMSO was 0.9%. […] Kd measurements were performed in duplicate.
Binding constants (Kd values) were calculated with a standard dose-response curve using the Hill equation: […]
The Hill Slope was set to −1.

In the next assay the target is Tyk2 kinase domain (JH1) (Homo sapiens (Human), UniProt P29597). Put plainly: Tyk2 Radioactive Kinase Assay. The assay is classed as biochemical. To be noted: 10 μM compound, ATP at 10 μM; read-out: TYK2_IC50_RB (% INH_@_10 uM) at 10.0 uM [% INH]. The protocol: (§1) The Tyk2 and JAK2 radioactive kinase assay measures the percent inhibition at the Tyk2 kinase domain (JH1) and the percent inhibition at the JAK2 kinase domain (JH1). Results of the assay are expressed as percent inhibition at 10 μM.
Chain of Tyk2 kinase domain (JH1) (P29597 897-1176): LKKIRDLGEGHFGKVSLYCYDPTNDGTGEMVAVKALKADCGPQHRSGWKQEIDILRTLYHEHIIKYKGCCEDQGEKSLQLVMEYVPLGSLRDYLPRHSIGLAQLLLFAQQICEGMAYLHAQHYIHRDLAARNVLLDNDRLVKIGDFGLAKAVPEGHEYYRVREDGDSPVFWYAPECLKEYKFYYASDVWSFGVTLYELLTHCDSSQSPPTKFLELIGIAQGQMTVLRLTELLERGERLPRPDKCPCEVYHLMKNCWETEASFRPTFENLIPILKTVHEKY

The next assay concerns the target JAK2 kinase domain (JH1) (Homo sapiens (Human), UniProt O60674). As to the kind of experiment: JAK2 Radioactive Kinase Assay. The format is biochemical. The following applies: 10 μM compound, ATP at 10 μM; read-out: JAK2_IC50_RB (% INH_@_10 uM) at 10.0 uM [% INH]. The method, then: as §1
A further assay has as its target JAK3 kinase domain (Homo sapiens (Human), UniProt P52333). As to the kind of experiment: JAK3 Radioactive Kinase Assay. The format is biochemical. The following applies: 10 μM compound; read-out: JAK3_IC50_RB (% INH_@_10 uM) at 10.0 uM [% INH]. The text has this: (§2) Similar assays were run to measure the percent inhibition at the JAK1 and JAK3 kinase domains.
Assay [2] concerns IL-12 induced STAT4 phophorylation mediated by Tyk2/JAK2 (heterodimeric complex). Put plainly: IL-12 Induced pSTAT4 in Human PBMC. The assay is classed as cell-based. To be noted: for IC50: 1.7 ng/mL IL-12, read-out: PBMC_IL-12-pSTAT4 (IC50); for inhibition at 0.05 µM: Homo sapiens, PBMC, 0.05 μM compound, 1.7 ng/mL IL-12, read-out: PBMC_IL-12-pSTAT4 (% Inhibition_Average_@0.05 uM) [%]. The method, then:
Human PBMC are isolated from buffy coat and are stored frozen for assays as needed. […] 15 μl of compound or DMSO is added to the well at the desired concentrations and incubated at 1 hr at 37° C. 15 μl of stimulus (final concentration of 1.7 ng/mL IL-12) is added for 30 minutes prior to pSTAT4 and total STAT4 analysis using cell lysates prepared and analyzed by MSD reagents as per manufacturer protocol. The final DMSO concentration of compound in the assay is 0.1%.
The IL-12 Induced pSTAT4 assay evaluates the inhibition of IL-12 induced STAT4 phophorylation mediated by Tyk2/JAK2 (heterodimeric complex).

The next assay concerns the target JAK1 kinase domain (Homo sapiens (Human), UniProt P23458). Put plainly: JAK1 Radioactive Kinase Assay. The assay is classed as biochemical. The following applies: 10 μM compound; read-out: JAK1_IC50_RB (% INH_@_10 uM) at 10.0 uM [% INH].
Excerpt: as §2

Chain of JAK1 kinase domain (P23458 875-1153): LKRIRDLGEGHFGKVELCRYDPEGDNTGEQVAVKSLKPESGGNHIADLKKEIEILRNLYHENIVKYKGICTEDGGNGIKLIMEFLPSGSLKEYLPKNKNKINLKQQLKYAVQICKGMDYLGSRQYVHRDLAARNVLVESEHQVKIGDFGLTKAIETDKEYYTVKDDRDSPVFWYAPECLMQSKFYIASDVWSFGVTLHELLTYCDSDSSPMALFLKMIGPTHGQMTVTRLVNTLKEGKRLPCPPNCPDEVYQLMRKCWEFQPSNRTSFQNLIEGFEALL
Chain of JAK3 kinase domain (P52333 822-1111): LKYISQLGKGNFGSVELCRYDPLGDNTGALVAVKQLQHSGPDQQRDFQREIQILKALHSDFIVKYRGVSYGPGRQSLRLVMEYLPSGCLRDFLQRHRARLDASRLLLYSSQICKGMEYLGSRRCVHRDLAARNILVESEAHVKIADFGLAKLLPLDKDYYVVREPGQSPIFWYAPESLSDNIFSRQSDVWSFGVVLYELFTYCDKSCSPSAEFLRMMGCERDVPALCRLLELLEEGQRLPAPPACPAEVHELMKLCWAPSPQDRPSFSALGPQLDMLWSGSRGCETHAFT
Chain of JAK2 kinase domain (JH1) (O60674 849-1124): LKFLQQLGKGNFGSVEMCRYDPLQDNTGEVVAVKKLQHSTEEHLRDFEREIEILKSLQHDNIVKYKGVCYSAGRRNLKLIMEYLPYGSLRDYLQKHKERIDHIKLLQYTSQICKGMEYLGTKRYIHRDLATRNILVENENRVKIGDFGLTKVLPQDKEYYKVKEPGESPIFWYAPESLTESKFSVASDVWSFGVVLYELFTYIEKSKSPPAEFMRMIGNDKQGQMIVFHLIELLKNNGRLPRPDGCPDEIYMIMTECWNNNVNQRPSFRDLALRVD

As for `CNc1cc(-c2cn(C(C)C)c3ncccc23)nn2c(C(=O)N[C@@H]3C[C@@H]3F)cnc12` [Compound I-5, N-((1R,2S)-2-fluorocyclopropyl)-6-(1-isopropyl-1H-pyrrolo[2,3-b]pyridin-3-yl)-8-(methylamino)imidazo[1,2-b]pyridazine-3-carboxamide], in assay [1], the Kd was < 200 pM. In addition, the inhibition at 10 µM at Tyk2 kinase domain (JH1), at JAK2 kinase domain (JH1), on JAK3 kinase domain and on JAK1 kinase domain was < 50% each time. Besides, the half-inhibitory concentration (IC50) in assay [2] is < 100000 pM. Besides, the inhibition at 0.05 µM in assay [2] was in the range of 70 to 90%.
For `CNc1cc(-c2cn(C(C)C)c3ncccc23)nn2c(C(=O)N[C@@H]3CC[C@@H]3O)cnc12` [Compound I-7, N-((1R,2S)-2-hydroxycyclobutyl)-6-(1-isopropyl-1H-pyrrolo[2,3-b]pyridin-3-yl)-8-(methylamino)imidazo[1,2-b]pyridazine-3-carboxamide], the dissociation constant (Kd) in assay [1] was < 200 pM. For the same molecule, the inhibition at 10 µM on Tyk2 kinase domain (JH1), on JAK2 kinase domain (JH1), on JAK3 kinase domain and on JAK1 kinase domain was < 50% each time.
`CNc1cc(-c2cn(C(C)C)c3ncccc23)nn2c(C(=O)N[C@H]3CC[C@H]3O)cnc12` [Compound I-10, N-((1S,2R)-2-hydroxycyclobutyl)-6-(1-isopropyl-1H-pyrrolo[2,3-b]pyridin-3-yl)-8-(methylamino)imidazo[1,2-b]pyridazine-3-carboxamide]: the equilibrium dissociation constant (Kd) in assay [1] is < 200 pM. Moreover, the inhibition at 10 µM at Tyk2 kinase domain (JH1), on JAK2 kinase domain (JH1), on JAK3 kinase domain and at JAK1 kinase domain was < 50% in each case. Further, in assay [2], the concentration for half-maximal inhibition (IC50) was < 100000 pM. For the same molecule, in assay [2], the inhibition at 0.05 µM lay in the range of 70 to 90%.
Turning to `CNc1cc(-c2cn(CCN3CCOCC3)c3ncccc23)nn2c(C(=O)N[C@@H]3C[C@@H]3F)cnc12` [Compound I-6, N-((1R,2S)-2-fluorocyclopropyl)-8-(methylamino)-6-(1-(2-morpholinoethyl)-1H-pyrrolo[2,3-b]pyridin-3-yl)imidazo[1,2-b]pyridazine-3-carboxamide], the Kd in assay [1] was < 200 pM. Also, the inhibition at 10 µM at Tyk2 kinase domain (JH1), at JAK2 kinase domain (JH1), at JAK3 kinase domain and at JAK1 kinase domain was < 50% throughout. Further, the IC50 in assay [2] was < 100000 pM. The inhibition at 0.05 µM in assay [2] is < 50%.
Turning to `CNc1cc(-c2cn(CCN3CCOCC3)c3ncccc23)nn2c(C(=O)N[C@H]3CC[C@H]3O)cnc12` [Compound I-12, N-((1S,2R)-2-hydroxycyclobutyl)-8-(methylamino)-6-(1-(2-morpholinoethyl)-1H-pyrrolo[2,3-b]pyridin-3-yl)imidazo[1,2-b]pyridazine-3-carboxamide], the Kd in assay [1] is < 200 pM. The inhibition at 10 µM on Tyk2 kinase domain (JH1), on JAK2 kinase domain (JH1), at JAK3 kinase domain and at JAK1 kinase domain was < 50% throughout. Besides, the inhibition at 0.05 µM in assay [2] was < 50%.
On to `CNc1cc(Nc2cccn(-c3ccccn3)c2=O)nn2c(C(=O)NC3CC3)cnc12` [Compound I-4, N-cyclopropyl-8-(methylamino)-6-((2-oxo-2H-[1,2′-bipyridin]-3-yl)amino)imidazo[1,2-b]pyridazine-3-carboxamide], for which, in assay [1], the dissociation constant (Kd) was < 200 pM. Further, the inhibition at 10 µM at Tyk2 kinase domain (JH1), at JAK2 kinase domain (JH1), at JAK3 kinase domain and on JAK1 kinase domain was < 50% in each case. Besides, the inhibition at 0.05 µM in assay [2] is < 50%.
